Some test systems named below: DMS 114 small cell lung; KM20L2 colon; LXFL 529 NSCLC; SNB-78 CNS; HOP-18 NSCLC; BT-549 breast; DU-145 prostate; HS 578T breast; NCI/ADR-RES ovarian; PC-3 prostate.
Common to all, as to assay: NCI tumour cell line growth inhibition, 48 h

The structures appear in SMILES notation. Several values for one entry are separate records, joined by “and”; a condition that tells them apart may be missing. Equal entries are not always repeated.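 Results reflect a 48-hour exposure of cells in 96-well plates to compound at five concentrations. Abbreviation: GI50, concentration required for 50% inhibition of growth. TGI marks complete inhibition of growth.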

In the case of `CSc1nnc(COc2ccc(Cl)cc2)o1`, the TGI in the test on DMS 114 small cell lung, in the test on KM20L2 colon, in the test on LXFL 529 NSCLC and in the test on SNB-78 CNS was greater than 100 µM throughout.

On to `Cc1nc(C(N)=S)sc1C(=O)/C=C/c1c(O)ccc2ccccc12`, for which the TGI in the test on DMS 114 small cell lung was 98.1 µM; in the test with HOP-18 NSCLC, greater than 100 µM; in the test with KM20L2 colon, greater than 100 µM; with LXFL 529 NSCLC, greater than 100 µM; in the test with SNB-78 CNS it was greater than 100 µM.

Turning to `COC(=O)C1(O)CC(=O)CCC1c1ccc(OC)cc1` (stereo unspecified), the TGI with DMS 114 small cell lung, with HOP-18 NSCLC, with KM20L2 colon and with SNB-78 CNS was greater than 100 µM throughout.

`CCNC(=O)COc1ccc(Cl)cc1Cl`: the TGI in the test with DMS 114 small cell lung, in the test on HOP-18 NSCLC, with KM20L2 colon, with LXFL 529 NSCLC and with SNB-78 CNS was greater than 100 µM each time.

As to `N/N=C1\C(=O)N(CCc2ccccc2)C(=O)C1C(=O)NCCc1ccccc1` (stereo unspecified), the TGI with KM20L2 colon, with LXFL 529 NSCLC and with SNB-78 CNS was greater than 100 µM each time.

For `Cc1c(C(=O)O)oc2ccc([N+](=O)[O-])cc12`, the TGI in the test on DMS 114 small cell lung, with HOP-18 NSCLC, in the test on KM20L2 colon, in the test on LXFL 529 NSCLC and in the test with SNB-78 CNS was greater than 100 µM each time.

Consider `CC(C)(C)c1cc(C=C(C#N)C#N)cc(C(C)(C)C)c1O`, for which the GI50 was 0.141 µM with BT-549 breast; 0.0894 µM in the test with DU-145 prostate; 0.133 µM in the test on HS 578T breast; 0.0629 µM in the test with NCI/ADR-RES ovarian; 0.0354 µM in the test with PC-3 prostate. Besides, the TGI in the test with BT-549 breast is 0.875 µM and 6.78 µM; in the test with DMS 114 small cell lung, 7.3 µM; with DU-145 prostate it was 18.5 µM and 56.8 µM; with HS 578T breast, 22.7 µM and 4.49 µM; with KM20L2 colon, 73.2 µM; with LXFL 529 NSCLC, 6.59 µM. For the same compound, the TGI in the test on NCI/ADR-RES ovarian is 15.1 µM and 41.5 µM; in the test on PC-3 prostate, 3.36 µM and 4.17 µM.

On to `CC(C)(Oc1ccc(/C=C/C(=O)c2ccc(Cl)cc2)cc1)C(=O)Nc1c(Cl)cccc1Cl`, for which the TGI with DMS 114 small cell lung is 33.7 µM; with HOP-18 NSCLC, greater than 100 µM; in the test with KM20L2 colon, 46.1 µM; in the test with LXFL 529 NSCLC, 53.9 µM.

Turning to `CCOC(=O)c1cc2c3c(c(O)c(OC)c2s1)N(C(=O)c1cc2c4c(c(O)c(OC)c2s1)N(C(C)=O)CC4)CC3`, the TGI in the test on DMS 114 small cell lung, in the test on HOP-18 NSCLC, with KM20L2 colon, in the test on LXFL 529 NSCLC and with SNB-78 CNS was greater than 100 µM throughout.

`Nc1ncnc2c1ncn2CC(O)CO` (stereo unspecified): the TGI in the test on DMS 114 small cell lung, in the test on HOP-18 NSCLC, with LXFL 529 NSCLC and in the test with SNB-78 CNS was greater than 100 µM in each case.

For `COc1ccc(C(=O)NCCN(C)C)c2nc3ccccc3nc12`, the TGI in the test with DMS 114 small cell lung was 12.5 µM; in the test on HOP-18 NSCLC, greater than 82.6 µM; in the test on KM20L2 colon, 26.5 µM; with LXFL 529 NSCLC, greater than 37.9 µM; in the test on SNB-78 CNS, 38.4 µM.

With `C=C(C)C1C/C=C(/C)CCCC2(CCC3=C(CC(C(=C)C)C/C=C(/C)CCC3)O2)C(=O)C1` (stereo unspecified), the TGI in the test on DMS 114 small cell lung, in the test on HOP-18 NSCLC, in the test with KM20L2 colon, with LXFL 529 NSCLC and in the test with SNB-78 CNS was greater than 100 µM each time.

With `COc1ccc(/C(=N\NC(=S)NN)C(c2ccc(OC)cc2)C2C(=O)Oc3ccccc32)cc1` (stereo unspecified), the TGI with DMS 114 small cell lung, in the test on HOP-18 NSCLC, in the test with KM20L2 colon, in the test on LXFL 529 NSCLC and with SNB-78 CNS was greater than 100 µM in each case. For the same compound, the GI50 with HOP-18 NSCLC, with KM20L2 colon and with SNB-78 CNS was greater than 100 µM each time.

In the case of `COc1ccc2[nH]c3c(c2c1)[C@H](C)C[C@@H]1C(=O)N(c2ccccc2)C(=O)[C@H]31`, the TGI was greater than 100 µM in the test with DMS 114 small cell lung, 46.3 µM with HOP-18 NSCLC, greater than 100 µM in the test on KM20L2 colon and greater than 100 µM in the test on LXFL 529 NSCLC.

On to `C[N+](C)(C)CC1CCCCC1O` (stereo unspecified), for which the TGI in the test with HOP-18 NSCLC, in the test with KM20L2 colon, with LXFL 529 NSCLC and with SNB-78 CNS was greater than 100 µM each time.

In the case of `C=CC(OCC)(OCC)OCC`, the TGI in the test on DMS 114 small cell lung is 31.2 µM; with HOP-18 NSCLC it was greater than 100 µM; in the test on KM20L2 colon it was greater than 100 µM; in the test with LXFL 529 NSCLC, greater than 100 µM; in the test with SNB-78 CNS it was greater than 100 µM.

In the case of `CCOC(=O)NC(=O)c1cn(CCN2CCN(C(=O)CCCCCCCCCCC(=O)N3CCN(CCn4cc(C(=O)NC(=O)OCC)c(=O)[nH]c4=O)CC3)CC2)c(=O)[nH]c1=O`, the TGI in the test on DMS 114 small cell lung, with HOP-18 NSCLC and in the test with LXFL 529 NSCLC was greater than 100 µM each time.

As to `COC(=O)C1(C(=O)OC)CC(=O)c2cc3c(cc2-c2c(cc(OC)c(OC)c2OC)C1)OCO3`, the TGI with HOP-18 NSCLC, with KM20L2 colon and in the test with LXFL 529 NSCLC was greater than 211 µM throughout.

Regarding `CCCCN(CC)CC(C(C)=O)c1c(O)c2ccccc2oc1=O` (stereo unspecified), the TGI in the test on DMS 114 small cell lung, in the test with HOP-18 NSCLC, in the test with KM20L2 colon, with LXFL 529 NSCLC and in the test on SNB-78 CNS was greater than 100 µM each time.

Turning to `O=c1oc2ccccc2[n+]([O-])c1-c1ccccc1`, the TGI in the test on DMS 114 small cell lung, with HOP-18 NSCLC, in the test with KM20L2 colon, with LXFL 529 NSCLC and with SNB-78 CNS was greater than 100 µM each time.

As for `O=C(N/N=C/c1cccc(F)c1)c1ccncc1`, the TGI in the test on DMS 114 small cell lung, with HOP-18 NSCLC, in the test with KM20L2 colon and with LXFL 529 NSCLC was greater than 100 µM each time.

As to `CCOC(=O)C(NC(=O)c1nc[nH]c1[N+](=O)[O-])C(C)C` (stereo unspecified), the TGI with DMS 114 small cell lung and in the test on LXFL 529 NSCLC was greater than 100 µM throughout.

As for `Cn1c2c(c3ccccc31)CCN(CCN1CCN(c3cccc(Cl)c3)CC1)C2=O`, the TGI with DMS 114 small cell lung, in the test with HOP-18 NSCLC, with KM20L2 colon and in the test on LXFL 529 NSCLC was greater than 100 µM throughout.

On to `Cc1ccccc1C(=O)N1CCN(C(=O)c2ccccc2C)CC1`, for which the TGI with HOP-18 NSCLC, in the test with KM20L2 colon, with LXFL 529 NSCLC and in the test on SNB-78 CNS was greater than 100 µM in each case.

As to `NC(=S)NN/C=C(\C=Nc1ccccc1)[N+](=O)[O-]`, the TGI in the test with DMS 114 small cell lung, in the test on KM20L2 colon and with LXFL 529 NSCLC was greater than 100 µM in each case.
